Experimental data from patent publication US12479816B2, “20-HETE formation inhibitors” (UNIVERSITY OF PITTSBURGH—OF THE COMMONWEALTH SYSTEM OF …, priority 2019, dated 2025).
Values after ≈ are worked out from the molar mass of the structure shown.

target: T1, rCYP4F2 (Homo sapiens, UniProt P78329); assay: Inhibition of 20-HETE formation at 250 or 500 nM in rCYP4F2 incubations; type: biochemical; settings: 500 nM compound; rCYP4F2 25 pmol/mL; read-out: rCYP4F2 % inh. @ 500 nM
T1 sequence (P78329 5-520): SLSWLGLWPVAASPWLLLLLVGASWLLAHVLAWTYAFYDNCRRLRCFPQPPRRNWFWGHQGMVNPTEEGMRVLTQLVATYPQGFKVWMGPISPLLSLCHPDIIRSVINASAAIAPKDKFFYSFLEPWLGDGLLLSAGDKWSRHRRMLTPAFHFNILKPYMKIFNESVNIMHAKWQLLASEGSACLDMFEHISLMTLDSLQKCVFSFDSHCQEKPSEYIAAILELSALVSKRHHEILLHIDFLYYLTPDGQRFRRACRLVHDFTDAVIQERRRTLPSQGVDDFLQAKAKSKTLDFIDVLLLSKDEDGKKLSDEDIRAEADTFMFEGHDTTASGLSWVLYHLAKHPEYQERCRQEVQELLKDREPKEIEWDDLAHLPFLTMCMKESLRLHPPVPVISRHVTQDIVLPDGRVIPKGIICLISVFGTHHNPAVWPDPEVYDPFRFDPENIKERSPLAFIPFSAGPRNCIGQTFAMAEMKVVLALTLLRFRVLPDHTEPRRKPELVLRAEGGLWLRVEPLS
Procedure: (§1) To screen the inhibitory effects against 20-HETE formation, compounds were screened in HLM, RLM, RKM and rCYP4F2 microsomal incubations. Compounds dissolved in either 100% methanol or 100% DMSO to yield 10 mM stock solution. Microsomal incubations containing HLM, RLM, RKM (300 μg/ml) or rCYP4F2 (25 pmol/mL), AA (100 μM), NADPH (1 mM) treated with test compounds at various concentrations (500 nM or 250 nM) in a 1 ml total volume in incubation buffer (0.12 M potassium phosphate buffer containing 5 mM magnesium chloride). Reaction was started by adding NADPH to the incubates and was carried out at 37° C. in a shaking water bath for 20 min. Reaction was stopped by placing tubes on ice, followed by adding 125 μl 20-HETE-d6 as internal standard to each sample. Microsomal incubations were extracted with 3 ml ethyl ether twice, dried down under nitrogen gas and reconstituted in 125 μl 80:20 methanol:deionized H2O for analysis. 20-HETE formation was quantified using a validated UPLC-MS/MS assay and normalized by vehicle group. Each compound had three replications (n=3). Vehicle group was used as control to calculate percentage of 20-HETE formation rate. HET0016 (250 nM) was used as positive control. Incubates without NADPH group served as the negative control. An Acquity ultra performance LC autosampler (Waters, Milford, MA) was used to isolate 20-HETE on an UPLC BEH C18, 1.7 μm (2.1×100 mm) reversed-phase column (Waters, Milford, MA) protected by a guard column (2.1×5 mm; Waters, Milford, MA) of the same packing material. Column temperature was maintained at 55° C. Mobile phases consisted of 0.005% acetic acid, 5% acetonitrile in deionized water (A) and 0.005% acetic acid in acetonitrile (B). The flow rate for mobile phases is 0.5 ml/min. The initial mixture of mobile phase was 65:35 of A and B. Mobile phase B increased at 0.4 minutes after injection from 35% to 70% in a linear gradient over 4 minutes, and again increased to 95% over 0.5 minutes where it remained for 0.3 minutes. This was followed by a linear return to initial conditions over 0.1 minutes with a 1.5 minute pre-equilibration period prior to the next sample run. Total run time was 6.4 minutes for each injection. Injection volumes were 7.5 μl. Mass spectrometric analysis was carried out using a TSQ Quantum Ultra (Thermo Fisher Scientific, San Jose, CA) triple quadrupole mass spectrometer using heated electrospray ionization (HESI). Mass spectrometer was operated in negative selective reaction monitoring (SRM) mode with unit resolutions at both Q1 and Q3 set at 0.70 Da full width at half maximum. Scan time was set at 0.01 s and collision gas pressure was 1.3 mTorr. Quantitation of 20-HETE by SRM was performed by monitoring the m/z. Analytical data was acquired and analyzed using Xcaliber 3.0 data system (ThermoFinnigan, San Jose, CA).

In order of falling inhibition at 0.5 µM:
1. COc1ccc(C2CCN(c3ccn[nH]3)CC2)cc1Cl [Compound 67, 4-(3-Chloro-4-methoxyphenyl)-1-(1H-pyrazol-5-yl)piperidine]  90.9%
2. Clc1cccc(C2CCN(c3cn[nH]c3)CC2)c1 [Compound 61, 4-(3-Chlorophenyl)-1-(1H-pyrazol-4-yl)piperidine]  81.3%
3. Fc1ccc(SC2CCN(c3cn[nH]c3)CC2)cc1 [Compound 70, 4-((4-Fluorophenyl)thio)-1-(1H-pyrazol-4-yl)piperidine]  80.5%
4. Nc1ccc(C2CCN(c3cn[nH]c3)CC2)cc1 [Compound 105, 4-(1-(1H-pyrazol-4-yl)piperidin-4-yl)aniline]  78%
5. COc1cc(F)cc(C2CCN(c3cn[nH]c3)CC2)c1 [Compound 72, 4-(3-Fluoro-5-methoxyphenyl)-1-(1H-pyrazol-4-yl)piperidine]  77%
6. Clc1ccc(C2CCN(c3cn[nH]c3)CC2)cc1 [Compound 63, 4-(4-chlorophenyl)-1-(1H-pyrazol-4-yl)piperidine]  73.8%
7. COc1ccc(C2CCN(c3ccn[nH]3)CC2)c(Cl)c1 [Compound 66, 4-(2-Chloro-4-methoxyphenyl)-1-(1H-pyrazol-5-yl)piperidine]  58%
8. CC(=O)N(C)c1ccc(C2CCN(c3ccn[nH]3)CC2)c(F)c1 [Compound 71, N-(4-(1-(1H-Pyrazol-5-yl)piperidin-4-yl)-3-fluorophenyl)-N-methylacetamide]  52.2%
9. Clc1ccc(C2CCN(c3ccn[nH]3)CC2)cc1 [Compound 62, 4-(4-chlorophenyl)-1-(1H-pyrazol-5-yl)piperidine]  45%
10. COc1ccc(C2CCN(c3cn[nH]c3)CC2)c(Cl)c1 [Compound 65, 4-(2-Chloro-4-methoxyphenyl)-1-(1H-pyrazol-4-yl)piperidine]  35%
11. FC(F)(F)c1cncc(C2CCN(c3ccn[nH]3)CC2)c1 [Compound 103, 3-(1-(1H-Pyrazol-5-yl)piperidin-4-yl)-5-(trifluoromethyl)pyridine]  0%
12. O=S1(=O)CCc2cc(C3CCN(c4ccn[nH]4)CC3)ccc21 [Compound 106, 5-(1-(1H-Pyrazol-5-yl)piperidin-4-yl)-2,3-dihydrobenzo[b]thiophene 1,1-dioxide]  0%

system: 20-HETE formation (CYP4) in HLM; assay: Inhibition of 20-HETE formation at 250 or 500 nM in HLM microsomal incubations; type: biochemical, human; settings: 500 nM compound; HLM 300 μg/ml, AA 100 μM, 20 min
Procedure: as §1

In order of falling “HLM % inh. @ 500 nM” value:
1. Fc1ccc(SC2CCN(c3cn[nH]c3)CC2)cc1 [Compound 70, 4-((4-Fluorophenyl)thio)-1-(1H-pyrazol-4-yl)piperidine]  84.8%
2. COc1ccc(C2CCN(c3ccn[nH]3)CC2)cc1Cl [Compound 67, 4-(3-Chloro-4-methoxyphenyl)-1-(1H-pyrazol-5-yl)piperidine]  83.2%
3. CC(=O)N(C)c1ccc(C2CCN(c3ccn[nH]3)CC2)c(F)c1 [Compound 71, N-(4-(1-(1H-Pyrazol-5-yl)piperidin-4-yl)-3-fluorophenyl)-N-methylacetamide]  82%
4. Clc1cccc(C2CCN(c3cn[nH]c3)CC2)c1 [Compound 61, 4-(3-Chlorophenyl)-1-(1H-pyrazol-4-yl)piperidine]  77.5%
5. Nc1ccc(C2CCN(c3cn[nH]c3)CC2)cc1 [Compound 105, 4-(1-(1H-pyrazol-4-yl)piperidin-4-yl)aniline]  77.30%
6. COc1cc(F)cc(C2CCN(c3cn[nH]c3)CC2)c1 [Compound 72, 4-(3-Fluoro-5-methoxyphenyl)-1-(1H-pyrazol-4-yl)piperidine]  77%
7. Clc1ccc(C2CCN(c3cn[nH]c3)CC2)cc1 [Compound 63, 4-(4-chlorophenyl)-1-(1H-pyrazol-4-yl)piperidine]  74.3%
8. Clc1ccc(C2CCN(c3ccn[nH]3)CC2)cc1 [Compound 62, 4-(4-chlorophenyl)-1-(1H-pyrazol-5-yl)piperidine]  60.0%
9. COc1ccc(C2CCN(c3cn[nH]c3)CC2)c(Cl)c1 [Compound 65, 4-(2-Chloro-4-methoxyphenyl)-1-(1H-pyrazol-4-yl)piperidine]  57.00%
10. COc1ccc(C2CCN(c3ccn[nH]3)CC2)c(Cl)c1 [Compound 66, 4-(2-Chloro-4-methoxyphenyl)-1-(1H-pyrazol-5-yl)piperidine]  36%
11. FC(F)(F)c1cncc(C2CCN(c3ccn[nH]3)CC2)c1 [Compound 103, 3-(1-(1H-Pyrazol-5-yl)piperidin-4-yl)-5-(trifluoromethyl)pyridine]  0.00%
12. O=S1(=O)CCc2cc(C3CCN(c4ccn[nH]4)CC3)ccc21 [Compound 106, 5-(1-(1H-Pyrazol-5-yl)piperidin-4-yl)-2,3-dihydrobenzo[b]thiophene 1,1-dioxide]  0.00%

system: 20-HETE formation (CYP4) in RLM; assay: Inhibition of 20-HETE formation at 250 or 500 nM in RLM microsomal incubations; type: biochemical, rat; settings: 500 nM compound; RLM 300 μg/ml
Procedure: as §1

In order of rising “RLM % inh. @ 500 nM” value:
1. Clc1ccc(C2CCN(c3ccn[nH]3)CC2)cc1 [Compound 62, 4-(4-chlorophenyl)-1-(1H-pyrazol-5-yl)piperidine]  0.00%
2. COc1ccc(C2CCN(c3cn[nH]c3)CC2)c(Cl)c1 [Compound 65, 4-(2-Chloro-4-methoxyphenyl)-1-(1H-pyrazol-4-yl)piperidine]  0.00%
3. COc1ccc(C2CCN(c3ccn[nH]3)CC2)c(Cl)c1 [Compound 66, 4-(2-Chloro-4-methoxyphenyl)-1-(1H-pyrazol-5-yl)piperidine]  0.00%
4. FC(F)(F)c1cncc(C2CCN(c3ccn[nH]3)CC2)c1 [Compound 103, 3-(1-(1H-Pyrazol-5-yl)piperidin-4-yl)-5-(trifluoromethyl)pyridine]  0.00%
5. O=S1(=O)CCc2cc(C3CCN(c4ccn[nH]4)CC3)ccc21 [Compound 106, 5-(1-(1H-Pyrazol-5-yl)piperidin-4-yl)-2,3-dihydrobenzo[b]thiophene 1,1-dioxide]  0.00%
6. Clc1ccc(C2CCN(c3cn[nH]c3)CC2)cc1 [Compound 63, 4-(4-chlorophenyl)-1-(1H-pyrazol-4-yl)piperidine]  10.30%
7. COc1cc(F)cc(C2CCN(c3cn[nH]c3)CC2)c1 [Compound 72, 4-(3-Fluoro-5-methoxyphenyl)-1-(1H-pyrazol-4-yl)piperidine]  11.00%
8. Nc1ccc(C2CCN(c3cn[nH]c3)CC2)cc1 [Compound 105, 4-(1-(1H-pyrazol-4-yl)piperidin-4-yl)aniline]  17.00%
9. CC(=O)N(C)c1ccc(C2CCN(c3ccn[nH]3)CC2)c(F)c1 [Compound 71, N-(4-(1-(1H-Pyrazol-5-yl)piperidin-4-yl)-3-fluorophenyl)-N-methylacetamide]  25.00%
10. COc1ccc(C2CCN(c3ccn[nH]3)CC2)cc1Cl [Compound 67, 4-(3-Chloro-4-methoxyphenyl)-1-(1H-pyrazol-5-yl)piperidine]  30.20%
11. Fc1ccc(SC2CCN(c3cn[nH]c3)CC2)cc1 [Compound 70, 4-((4-Fluorophenyl)thio)-1-(1H-pyrazol-4-yl)piperidine]  35.70%
12. Clc1cccc(C2CCN(c3cn[nH]c3)CC2)c1 [Compound 61, 4-(3-Chlorophenyl)-1-(1H-pyrazol-4-yl)piperidine]  61.00%

system: not listed separately; assay: Turbidometric solubility determination; type: physicochemical; settings: PBS with 1% DMSO, aqueous buffer, kinetic from dmso stock, room temperature, OD620, read-out: Max Solub
Procedure: Solubility determinations shown in Table 3 were obtained turbidometrically and in a manner similar to the one described in Perez et al., J. Biomol. Screen, 2015, 20(2), 254-64. The method requires small volumes of 100× stock concentration drug solution to be prepared in DMSO 0, 0.23, 0.47, 0.94, 1.88, 3.75, 7.5, 15.0, 30.0 and […]. The stock drug concentrations are then diluted 1:100 added into triplicate wells containing PBS in a clear bottom 384 well microtiter to achieve final testing concentrations of 0, 2.3, 4.7, 9.4, 18.8, 37.5, 75, 150, 300, 600 μM in 1% DMSO. The plate is allowed to equilibrate with constant shaking for 2 hours at room temperature. The plate is then placed in a SpectroMax V plate reader to measure absorbance at 620 nm. Increase in absorbance is evident in test wells which precipitation of the compound is evident. The plot of OD620 vs. drug concentration is used to calculate the maximum solubility limit as determined by a statistically significant increase in absorbance above the background levels.

Going from Clc1cccc(C2CCN(c3cn[nH]c3)CC2)c1 [Compound 61, 4-(3-Chlorophenyl)-1-(1H-pyrazol-4-yl)piperidine] to Clc1ccc(C2CCN(c3cn[nH]c3)CC2)cc1 [Compound 63, 4-(4-chlorophenyl)-1-(1H-pyrazol-4-yl)piperidine], the solubility at 2 h falls from 121 µM (≈ 31.7 µg/mL) to 13.3 µM (≈ 3.48 µg/mL) (9.1-fold).

Compared with Clc1ccc(C2CCN(c3ccn[nH]3)CC2)cc1 [Compound 62, 4-(4-chlorophenyl)-1-(1H-pyrazol-5-yl)piperidine], COc1ccc(C2CCN(c3ccn[nH]3)CC2)cc1Cl [Compound 67, 4-(3-Chloro-4-methoxyphenyl)-1-(1H-pyrazol-5-yl)piperidine] is 4.8-fold higher in solubility at 2 h: 42.4 µM (≈ 11.1 µg/mL) for the first, 205 µM (≈ 59.8 µg/mL) for the second.

First: COc1ccc(C2CCN(c3cn[nH]c3)CC2)c(Cl)c1 [Compound 65, 4-(2-Chloro-4-methoxyphenyl)-1-(1H-pyrazol-4-yl)piperidine]
Second: COc1ccc(C2CCN(c3ccn[nH]3)CC2)c(Cl)c1 [Compound 66, 4-(2-Chloro-4-methoxyphenyl)-1-(1H-pyrazol-5-yl)piperidine]
The solubility at 2 h of the first is 7.1-fold lower: 18.7 µM (≈ 5.46 µg/mL) for the first, 133 µM (≈ 38.8 µg/mL) for the second.

First: Fc1ccc(SC2CCN(c3cn[nH]c3)CC2)cc1 [Compound 70, 4-((4-Fluorophenyl)thio)-1-(1H-pyrazol-4-yl)piperidine]
Second: COc1cc(F)cc(C2CCN(c3cn[nH]c3)CC2)c1 [Compound 72, 4-(3-Fluoro-5-methoxyphenyl)-1-(1H-pyrazol-4-yl)piperidine]
The solubility at 2 h of the first is 2.1-fold lower: 109 µM (≈ 30.2 µg/mL) for the first, 234 µM (≈ 64.4 µg/mL) for the second.

In the case of CC(=O)N(C)c1ccc(C2CCN(c3ccn[nH]3)CC2)c(F)c1 [Compound 71, N-(4-(1-(1H-Pyrazol-5-yl)piperidin-4-yl)-3-fluorophenyl)-N-methylacetamide], the solubility at 2 h is reported as over 600 µM.
